Laboratory results from US20060063825A1, “Crystalline form of a drug” (priority 2004, published 2006).
≈ marks a conversion by molar mass, not a printed value. Counter-ions that a name gives are not always drawn. Each block holds one molecule with its values, some of them ahead of it.

Experiments:
[1] = Solubility of Atrasentan Hydrochloride Crystalline Forms in 1,4-dioxane; assay type: physicochemical; details: 1,4-dioxane at 25° C. (n=3)
Protocol: The solubility (in mg/mL) of Atrasentan Hydrochloride Crystalline Forms 1, 2 and 3 in 1,4-dioxane at 25° C.

[2] = Conversion of crystalline forms of atrasentan hydrochloride to Form 2 in representative solvents at 25° C.; assay type: physicochemical; design: key: 1, 2 and 3 mean Atrasentan Hydrochloride Crystalline Forms 1, 2 and 3, respectively.; 1, 2 and 3 mean Atrasentan Hydrochloride Crystalline Forms 1, 2 and 3, respectively.; 1, 2 and 3 mean Atrasentan Hydrochloride Crystalline Forms 1, 2 and 3, respectively
Protocol: Examples of representative solvents that are useful for converting a particular crystalline form of atrasentan hydrochloride to Atrasentan Hydrochloride Crystalline Form 2 having substantial crystalline purity at 25° C. are shown in TABLE 2.

solubility [1]: 16.53 ± 0.22 mg/mL (≈ 32.4 mM)
SMILES: CCCCN(CCCC)C(=O)CN1C[C@H](c2ccc3c(c2)OCO3)[C@@H](C(=O)O)[C@@H]1c1ccc(OC)cc1 [Form 3, (2R,3R,4S)-(+)-2-(4-methoxyphenyl)-4-(1,3-benzodioxol-5-yl)-1-(N,N-di(n-butyl)aminocarbonylmethyl)pyrrolidine-3-carboxylic acid]

crystalline form present ([2]; 0.1M HCl, week 1, 25° C.): 1
crystalline form present ([2]; 0.1M HCl, week 2, 25° C.): 1
crystalline form present ([2]; 0.1M HCl, week 4, 25° C.): 1
crystalline form present ([2]; 0.1M HCl, week 9, 25° C.): 2
crystalline form present ([2]; 0.1M HCl, week 16, 25° C.): 2
crystalline form present ([2]; IPA (isopropyl alcohol), week 1, 25° C.): 1
crystalline form present ([2]; IPA (isopropyl alcohol), week 2, 25° C.): 1
crystalline form present ([2]; IPA (isopropyl alcohol), week 4, 25° C.): 2
crystalline form present ([2]; IPA (isopropyl alcohol), week 9, 25° C.): 2
crystalline form present ([2]; IPA (isopropyl alcohol), week 16, 25° C.): 2
crystalline form present ([2]; PEG 400 (polyethylene glycol), week 1, 25° C.): 1
crystalline form present ([2]; PEG 400 (polyethylene glycol), week 2, 25° C.): 1
crystalline form present ([2]; PEG 400 (polyethylene glycol), week 4, 25° C.): 1
crystalline form present ([2]; PEG 400 (polyethylene glycol), week 9, 25° C.): 1
crystalline form present ([2]; PEG 400 (polyethylene glycol), week 16, 25° C.): 2
crystalline form present ([2]; acetone, week 1, 25° C.): 2
crystalline form present ([2]; acetone, week 2, 25° C.): 2
crystalline form present ([2]; acetone, week 4, 25° C.): 2
crystalline form present ([2]; acetone, week 9, 25° C.): 2
crystalline form present ([2]; acetone, week 16, 25° C.): 2
crystalline form present ([2]; ethanol, week 1, 25° C.): 2
crystalline form present ([2]; ethanol, week 2, 25° C.): 2
crystalline form present ([2]; ethanol, week 4, 25° C.): 2
crystalline form present ([2]; ethanol, week 9, 25° C.): 2
crystalline form present ([2]; ethanol, week 16, 25° C.): 2
crystalline form present ([2]; ethyl acetate, week 1, 25° C.): 1
crystalline form present ([2]; ethyl acetate, week 2, 25° C.): 1
crystalline form present ([2]; ethyl acetate, week 4, 25° C.): 1
crystalline form present ([2]; ethyl acetate, week 9, 25° C.): 2
crystalline form present ([2]; ethyl acetate, week 16, 25° C.): 2
crystalline form present ([2]; nitromethane, week 1, 25° C.): 3
crystalline form present ([2]; nitromethane, week 2, 25° C.): 3
crystalline form present ([2]; nitromethane, week 4, 25° C.): 3
crystalline form present ([2]; nitromethane, week 9, 25° C.): 3
crystalline form present ([2]; nitromethane, week 16, 25° C.): 2
SMILES: CCCCN(CCCC)C(=O)CN1C[C@H](c2ccc3c(c2)OCO3)[C@@H](C(=O)O)[C@@H]1c1ccc(OC)cc1 [atrasentan hydrochloride, (2R,3R,4S)-(+)-2-(4-methoxyphenyl)-4-(1,3-benzodioxol-5-yl)-1-(N,N-di(n-butyl)aminocarbonylmethyl)pyrrolidine-3-carboxylic acid]
